These results are taken from article PMC10759609, “A novel PDPN antagonist peptide CY12-RP2 inhibits melanoma growth via Wnt/β-catenin and modulates the immune cells” (Journal of Experimental & Clinical Cancer Research : CR, 2024).

Where two headings read alike, the source gives them in different places. Peptide text beside a SMILES is read from it.

Common to all, as to assay type: cell-based
Assay [1] deals with A375 cellular spheroid. The experiment in a line: 3D spheroid diameter, A375. Conditions: A375 spheroids; 0, 50, 100, 200 μM, 5 days. On the procedure:
(§1) A375 and A875 cells were collected and suspended in Matrigel (Corning) with a density of 1.0 × 10^7 cells per mL. 3D spheroids were fabricate using cell-processing system that have two pumps. One pump was loaded with Matrigel and another with fluorocarbon oil (3 M NOVEC, HFE-7000). The flow rate of Matrigel was 20 μL/min and the fluorocarbon oil rate was 30 μL/min. The 3D spheroids were incubated at 37 °C with 5% CO2 after printing. Culturing medium was DMEM medium supplemented with 10% FBS, and 100 IU of penicillin and […] streptomycin. The medium was changed every 3 days. Afterward, the 3D spheroids were harvested for drug analysis.
(§2) Prepared melanoma cells spheroids were plated in 48-well plates. Following incubation for 3 days, the spheroids were exposed to different concentrations (0, 50, 100 and 200 μM) of CY12-RP2, and changes in spheroid diameter were detected after 5 days of treatment. Additionally, melanoma cell spheroids were treated with various concentrations of CY12-RP2 as described previously, and after 72 h, the spheroids were stained for immunofluorescence with caspase 3 primary antibody. The specific experimental procedures refer to the following immunofluorescence analysis. Additionally, we co-cultured peptide-stimulated PBMC with spheroids to determine the tumor-killing ability of activated PBMC.

Assay [2] has as its system A875 cellular spheroids. The experiment in a line: 3D spheroid diameter, A875. To be noted: only at 200 μM, 5 days. On the procedure:
as §1, §2

Assay [3] has as its system A875 cells. The experiment in a line: Annexin V/PI flow cytometry apoptosis, A875. To be noted: 0, 50, 100, 200 μM, 48 h. Here is the method: In this study, cell apoptosis was analyzed by flow cytometry using a PI/FITC-Annexin V Apoptosis Detection Kit (4A Biotech, Beijing, China). Briefly, melanoma cells were collected and washed with pre-chilled PBS, then resuspended with Annexin V staining buffer. Afterward, fluorescein isothiocyanate (FITC)-Annexin V and PI were stained for 5 min at RT, and then immediately detected using a Beckman flow cytometer. To investigate immune cell infiltration of the lung and spleen in the pulmonary metastasis mouse model, the surface and nuclear antigen staining were performed following the experimental procedure. Fluorescence-labeled mAb against CD3, CD25, CD49b, GranzymeB, CD11b, CD86, and CD206 were purchased from BioLegend (BioLegend, San Diego, CA), and CD4, CD8, and Foxp3 from Tonbo. […] Finally, the samples were measured using flow cytometry.
Fig. 3 Biopanning of PDPN antagonist peptides. […] B Immunofluorescence staining was performed to quantify the colocalization of CY12-RP2 and PDPN protein in melanoma cell lines (A375, A875). […] D Suppression efficiency of melanoma cells growth by CY12-RP2 was measured by CCK8 assay at various concentrations for 24, 48 or 72 h, respectively. […] G, H The 3D cellular spheres were treated with the set concentrations of CY12-RP2 for 5 days and cell morphology was assessed (G), relative spheroid diameter was measured (H). […]
(In general: A flow cytometer gives signals particle by particle.)

For assay [4], the system named is A875 cells. Here is the method:
(§3) Cell viability was determined using a CCK8 kit. Melanoma cells were plated into 96-well plates at a density of 5 × 10^3 cells/well. The cells were then treated with peptides at the determined concentrations for 24, 48, and 72 h. The CCK-8 (10 μL/ well) was pipetted into each well and the cells were incubated at 37 °C for 1~3 h. The viable cells were calculated by performing absorbance readings at 450 nm using a microplate reader (BioTek).

Assay [5] deals with A375 cells. On the procedure:
as §3

The subject of assay [6] is PDPN in A375 cells. The experiment in a line: Immunofluorescence binding/co-localization with PDPN, A375. To be noted: 5 μM, 10 h, 37 ℃. Here is the method:
Immunofluorescence analysis was used for antigen localization and quantification. For PDPN immunofluorescence staining, melanoma cells (A375, A875) were seeded in coverslips, cultured for 24 h, and fixed using 4% paraformaldehyde for 15 min at room temperature (RT). The cells were then permeabilized with 0.2% Triton X-100 in PBS for 10 min. Cells were blocked using 1% bovine serum albumin (BSA) in PBS for 30 min at RT, and incubated with the primary antibody overnight at 4 ℃. Afterwards, cells were washed three times with PBS containing 0.01% Triton X-100 for 5 min, and incubated with Alexa Fluor 568–conjugated secondary antibodies at RT for 1 h. Lastly, the nuclei were dyed with 4’,6-diamidino-2-phenylindole (DAPI) for 5 min at RT, and the slides were imaged using a NIKON laser scanning confocal microscope. To further verify the specificity binding ability of CY12-RP2 with PDPN, immunofluorescence was detected for analysis in melanoma cells. Briefly, A375 or A875 cells were incubated with CY12-RP2 at a concentration of 5 μM for 10 h at 37 ℃, and then washed with DMEM to remove the unbound peptide. The anti-PDPN primary antibody was then incubated for 4 h at RT. Further experimental procedures were performed as described above. […]

By IC50 is commonly meant the midpoint of a concentration-inhibition curve. Lower therefore signals greater potency. In the case of `CC(C)C[C@H](NC(=O)[C@H](Cc1ccc(O)cc1)NC(=O)[C@@H](N)[C@@H](C)O)C(=O)N[C@@H](CS)C(=O)N[C@H](C(=O)N[C@@H](C)C(=O)N[C@@H](CS)C(=O)N[C@@H](CC(=O)O)C(=O)N[C@@H](Cc1ccc(O)cc1)C(=O)N[C@H](C(=O)N[C@@H](Cc1c[nH]cn1)C(=O)N[C@@H](Cc1c[nH]cn1)C(=O)O)[C@@H](C)O)[C@@H](C)O` [CY12-RP2] (H-TYLCTACDYTHH-OH; N-terminus and C-terminus assumed), the relative spheroid diameter entry in assay [1] is listed as “significantly diminished with increasing CY12-RP2 concentration”; in assay [2], “only a high concentration of CY12-RP2 (200 μM) could decrease the diameter”. For the same compound, the apoptosis rate entry in assay [3] is “milder”. In addition, the IC50 in assay [4] (48 h) amounted to 654 µM; in assay [4] (72 h) it was 117 µM; in assay [5] (24 h) it was 602 µM; in assay [5] (48 h) it was 118 µM; in assay [5] (72 h), 55.2 µM. Also, the “cell growth inhibition (in words)” value is recorded as “relatively diminished impact” in assay [4] (PDPN underexpressed A875, CCK8, various concentrations) and “dramatically inhibited cell growth in a dose-dependent manner” in assay [5] (PDPN overexpressed A375, CCK8, various concentrations). Besides, the “fluorescence and co-localization with PDPN” value in assay [6] is “strong fluorescence and co-localization”.
